From patent US20220169989A1, “HUMAN CARDIOMYOCYTE SEPARATION REAGENT, CULTURE MEDIUM, SEPARATION METHOD, AND CULTURE METHOD” (FUWAI HOSPITAL CHINESE ACADEMY OF MEDICAL SCIENCES, priority 2019, published 2022)
In brackets after ≈: the same amount, converted by molar mass.

Legend:
human cardiomyocytes [1] = test: Effect of myosin inhibitors BTS and MYK-461 on survival rate (Example 2.5); type: cell-based; details: MEM-HEPES-GlutaMAX + 10% FBS, p<0.05
Method: In order to explore whether there are other myosin ATPase inhibitors besides BDM and (−)-Blebbistatin that can improve the rate of rod-shaped cardiomyocytes, the effects of (−)-Blebbistatin, BTS, and MYK-461 on the activity of cardiomyocytes were compared. For the isolated human cardiomyocytes, MEM-4-hydroxyethyl piperazine ethanesulfonic acid-GlutaMAX medium comprising 10 μM (−)-Blebbistatin, BTS (at concentrations of 5 μM, 10 μM, 20 μM, 30 μM, 40 μM, or 50 μM, respectively), or MYK-461 (at concentrations of 0.5 μM, 1 μM, 2 μM, 5 μM, 10 μM, or 20 μM, respectively) respectively was used, and 10% fetal bovine serum, 100 U/ml penicillin and 100 μg/ml streptomycin were added to the medium.

human cardiomyocytes [2] = test: Culture test: concentrations of (−)-Blebbistatin and para-aminoblebbistatin (Example 2.1); type: cell-based
Method: 10% fetal bovine serum, 100 U/ml penicillin and 100 μg/ml streptomycin were added to M199 medium (purchased from Sigma), and the resulting medium was used as the basal medium. The experiment was divided into 9 groups, i.e. 0, 2.5, 5, 10, or 20 μM (−)-Blebbistatin, or 5 μM, 10 μM, 20 μM, or 50 μM para-aminoblebbistatin was added to the basal medium. The isolated human cardiomyocytes were divided into 9 groups, and the cells using 9 culture media were plated on a 48-well cell culture plate precoated with 200 μg laminin, and placed and cultured in a 37° C. cell incubator (with 5% CO2, and a relative saturated humidity of 95%) for 7 days, and the rates of rod-shaped cardiomyocytes were calculated.

human cardiomyocytes [3] = test: Effect of coating composition on adherent cardiomyocytes (Example 2.2); type: cell-based; details: 72 hours; for number of rod-shaped cells: medium with 20 mM BDM
Method: 48-well culture plates were coated with the following reagents: laminin (Gibco, product number: 23017015; 50 μg/ml or 200 μg/ml, incubated overnight in a 37° C. incubator, and air dried), fibronectin (Sigma Aldrich, product number: F0895-2 MG; 5 μg/ml or 50 μg/ml, air dried), poly-L-lysine (Sigma Aldrich, product number: P04832-50 ML; 0.01%, incubated at room temperature for 5 min, air dried), and Matrigel (Corning, product number: 354234; incubated at 37° C. for 30 min). The culture medium used in this experiment was obtained by adding 20 mM BDM, 10% fetal bovine serum, 100 U/ml penicillin and 100 μg/ml streptomycin to M199 medium. The isolated cardiomyocytes were plated on coated 48-well culture plates, cultured for 72 hours (h), and photographed under a microscope. 4 fields of view were taken for each group for calculating the average number of rod-shaped cells, and the result was expressed as the mean±standard deviation.

human cardiomyocytes [4] = test: Human cardiomyocyte isolation test (calcium-free solution); type: cell-based
Method: The cardiomyocyte isolation process generally comprises tissue transport and sectioning, calcium-free perfusion, enzyme solution digestion and cell collection. In the process, the calcium-free Tyrode's solution (calcium-free solution) was the main reagent used in the isolation process, for calcium-free perfusion, enzyme solution digestion and cell collection. The test was conducted in this invention by reference to the cardiomyocyte isolation experimental protocol described in Liang Chen, Guang-ran Guo, Man Rao, Kai Chen, Jiang-ping Song and Sheng-shou Hu, “A Modified Method for Isolation of Human Cardiomyocytes to Model Cardiac Diseases.”, Journal of Translational Medicine (2018). Specific steps were as follows:
An excised left atrial appendage was immediately placed in an organ preservation solution (manufactured by the University of Wisconsin, USA) (about 4° C.), and quickly transferred it to a 60 mm cell culture dish in a super clean bench, an organ preservation solution (about 4° C.) was added, and the culture dish was placed on an ice box pre-cooled in a refrigerator at −20° C. Scissors were used to remove excess fat and trim it, the tissue was adhered to a specimen stage, and a microtome (Leica VT1200S, Germany) was used to slice the tissue (300 μm) which was then manually cut into pieces in the super clean bench. The cut atrial appendage pieces were divided into three groups, and the tissues were decalcified three times using the calcium-free solution of the present invention. 15-20 ml calcium-free solution was added to an Erlenmeyer flask for calcium-free perfusion for three times. The Erlenmeyer flask was shaken at room temperature, the calcium-free solution was replaced with fresh one after 2 min and 3 min respectively, and the third calcium-free perfusion time is 4 min. After finishing the calcium-free perfusion, the calcium-free solution was discarded and enzyme solution 1 (preheated to 37° C.) formulated from the corresponding calcium-free solution was added respectively. […] The enzyme solution was collected into a 15 ml centrifuge tube, fresh enzyme solution 1 was added to the Erlenmeyer flask, and digestion was still performed in the water bath kettle. The collected enzyme solution was placed in a pre-cooled 4° C. centrifuge (Eppendorf centrifuge 5804R, Germany) for centrifugation (100×g, 1 min), and the supernatant was discarded, followed by observing whether there were cardiomyocytes in the precipitate at the tube bottom, and determining the proportion of rod-shaped cells. The second digestion is the same as the first digestion. When the rate of rod-shaped cardiomyocytes contained in the precipitate is 70% or more, the enzyme solution 1 was replaced with enzyme solution 2 formulated from the calcium-free solution used in the enzyme solution 1, and digestion was continued. This time, cardiomyocytes in the turbid enzyme solution were collected by centrifugation (4° C., 100×g, 1 min) and then resuspending cells in a 3 ml transport solution.
In the process, the calcium-free solution was a calcium-free solution comprising 5 μM (−)-Blebbistatin, 10 μM (−)-Blebbistatin, and 20 mM BDM, respectively.

[5] = water solubility, known property; cited from earlier work
human cardiomyocytes [6] = test: In vitro culture of isolated human cardiomyocytes after recalcification; type: cell-based; details: 10 μM in isolation and in M199 + 10% FBS culture; cultured for 6 days; higher than 20 mM BDM group, p<0.05
Method: In addition, in order to observe whether the cell states were different when the human cardiomyocytes isolated using two calcium-free solutions (20 mM BDM and 10 μM (−)-Blebbistatin) were cultured in vitro, we performed recalcification on the isolated human cardiomyocytes. Specifically, it was difficult for human cardiomyocytes to survive in an environment without calcium ions, and the present invention adopted a 5-step gradient recalcification method to restore the calcium ion concentration of human cardiomyocytes. The concentration gradients of CaCl2 (with a stock concentration of 30 mM) added to the cell collection solution were 0.08 mM (5 min), 0.25 mM (5 min), 0.5 mM (5 min), 1 mM (5 min), and 1.8 mM (15 min) in order. The human cardiomyocytes isolated in the 20 mM BDM group were cultured using M199 medium with addition of 10% fetal bovine serum (FBS) (note: the concentration percentage of fetal bovine serum in the examples and corresponding figures was volume percentage), 100 U/ml penicillin, 100 μg/ml streptomycin and 20 mM BDM. […]

Compound: CC(C)n1c(=O)cc(N[C@@H](C)c2ccccc2)[nH]c1=O [MYK-461]
- percentages of rod-shaped cells (human cardiomyocytes [1]; 0.5-20 μM vs 10 μM (−)-Blebbistatin): significantly lower than the percentage in the (−)-Blebbistatin group

Compound: Cc1ccc2c(c1)C(=O)[C@]1(O)CCN(c3ccc(N)cc3)C1=N2 [para-aminoblebbistatin]
- viability / survival rate of human cardiomyocytes (human cardiomyocytes [2]; 10 μM para-aminoblebbistatin vs 10 μM (−)-Blebbistatin, 7 days): no statistical difference
- survival rate of cardiomyocytes (human cardiomyocytes [2]; 5-50 μM, 7 days): can significantly improve the survival rate of cardiomyocytes

Compound: laminin
- number of rod-shaped cells (human cardiomyocytes [3]; coating 200 μg/ml): highest number of rod-shaped cells
- adherence and growth of cardiomyocytes (human cardiomyocytes [3]; coating, laminin 50-200 μg/ml): can allow cardiomyocytes to adhere and grow

Compound: fibronectin
- number of rod-shaped cells (human cardiomyocytes [3]; coating 5 μg/ml, 50 μg/ml): significantly lower than that in the Matrigel group, 50 μg/ml laminin group and 200 μg/ml laminin group

Compound: Cc1ccc(S(=O)(=O)NCc2ccccc2)cc1 [BTS, N-benzyl-p-toluenesulfonamide]
- percentages of rod-shaped cells (human cardiomyocytes [1]; 5-50 μM vs 10 μM (−)-Blebbistatin): significantly lower than the percentage in the (−)-Blebbistatin group

Compound: CC(=O)C(C)=NO [BDM, 2,3-butanedione monoxime]
- rod-shaped cell morphology after isolation (photomicrographs) (human cardiomyocytes [4]; 20 mM): not well maintained
- normalized rod-shaped cell rate (human cardiomyocytes [4]; 20 mM in calcium-free solution, reference of the normalization): 1.0

Compound: Cc1ccc2c(c1)C(=O)[C@]1(O)CCN(c3ccccc3)C1=N2 [(−)-Blebbistatin]
- rod-shaped cell morphology after isolation (photomicrographs) (human cardiomyocytes [4]; 5 μM and 10 μM): can maintain the long rod-shaped morphology of human cardiomyocytes
- normalized rod-shaped cell rate (human cardiomyocytes [4]; 5 μM and 10 μM in calcium-free solution, 20 mM BDM group normalized to 1.0, p<0.05): 1.2-1.5
- lengths of human cardiomyocytes isolated (human cardiomyocytes [4]; 5 μM and 10 μM vs 20 mM BDM group, p<0.05): remarkably longer than those in the 20 mM BDM group
- solubility [5]: 10.9 ± 0.9 µM (≈ 3.19 µg/mL)
- rate of rod-shaped cardiomyocytes (human cardiomyocytes [6]): ≥ 80%
- state of cardiomyocytes (culture images) (human cardiomyocytes [2]; 5 μM and 10 μM vs 0 μM, after 1 day of culture): remarkably better than in the 0 μM group
- long rod-shaped morphology of cardiomyocytes (culture images) (human cardiomyocytes [2]; 10 μM compared with 5 μM, 1 day, more obvious after 7 days): better maintained the long rod-shaped morphology of cardiomyocytes
- rate of rod-shaped cells (human cardiomyocytes [2]; 2.5, 5, 10, 20 μM vs 0 μM, M199 + 10% FBS, 7 days, p<0.001): remarkably higher than that in the group without (−)-Blebbistatin
